Measured values as given in paper PMC12026874, “Microstructure of Sea Cucumber Parastichopus tremulus Peptide Hydrogels and Bioactivity in Caco-2 Cell Culture Model” (Gels, 2025).
“Also recorded” adds a separate entry of the source. Where no end group is shown, it is not given here.

How the values were obtained:
[1] = accompanying manufacturer information; ref ProteoGenix SAS; cited from earlier work
Protocol: The peptide synthesis was carried out using ProteoGenix SAS, (Schiltigheim France), followed by acetate N-terminal blocking and chromatography purification (LC-MS purity chromatograms per peptide are included in the Supplementary Materials). Thus, 1 g of lyophilized powder at 80% or a higher purity (technical grade) in sterile plastic bottles was provided by ProteoGenix for further research. The peptides were stored at −20 °C, opened only prior to the dissolution preparation and ...

[2] = Experimental solubility and minimum gelation conditions; format: physicochemical; conditions: for solubility in sodium phosphate buffer (NaPB): 75 mM sodium phosphate buffer pH 7.4 (also ORAC buffer), 1–15 mM; for peptide concentration at which gelation occurs in NaPB: 75 mM sodium phosphate buffer pH 7.4, room temperature, no DMSO
[3] = target: T1, angiotensin-I converting enzyme (ACE I) (Oryctolagus cuniculus, UniProt P12822); experiment: ACE I inhibitory activity (cleavage of FA-PGG); format: biochemical; conditions: for IC50: linear regression over 7, 8.5 and 10 mg/mL, substrate FA-PGG, three independent replicates, read-out: ACE I inhibition IC50 (converted)
T1 construct: purchased Sigma Aldrich A6778
T1 sequence (P12822 34-1310): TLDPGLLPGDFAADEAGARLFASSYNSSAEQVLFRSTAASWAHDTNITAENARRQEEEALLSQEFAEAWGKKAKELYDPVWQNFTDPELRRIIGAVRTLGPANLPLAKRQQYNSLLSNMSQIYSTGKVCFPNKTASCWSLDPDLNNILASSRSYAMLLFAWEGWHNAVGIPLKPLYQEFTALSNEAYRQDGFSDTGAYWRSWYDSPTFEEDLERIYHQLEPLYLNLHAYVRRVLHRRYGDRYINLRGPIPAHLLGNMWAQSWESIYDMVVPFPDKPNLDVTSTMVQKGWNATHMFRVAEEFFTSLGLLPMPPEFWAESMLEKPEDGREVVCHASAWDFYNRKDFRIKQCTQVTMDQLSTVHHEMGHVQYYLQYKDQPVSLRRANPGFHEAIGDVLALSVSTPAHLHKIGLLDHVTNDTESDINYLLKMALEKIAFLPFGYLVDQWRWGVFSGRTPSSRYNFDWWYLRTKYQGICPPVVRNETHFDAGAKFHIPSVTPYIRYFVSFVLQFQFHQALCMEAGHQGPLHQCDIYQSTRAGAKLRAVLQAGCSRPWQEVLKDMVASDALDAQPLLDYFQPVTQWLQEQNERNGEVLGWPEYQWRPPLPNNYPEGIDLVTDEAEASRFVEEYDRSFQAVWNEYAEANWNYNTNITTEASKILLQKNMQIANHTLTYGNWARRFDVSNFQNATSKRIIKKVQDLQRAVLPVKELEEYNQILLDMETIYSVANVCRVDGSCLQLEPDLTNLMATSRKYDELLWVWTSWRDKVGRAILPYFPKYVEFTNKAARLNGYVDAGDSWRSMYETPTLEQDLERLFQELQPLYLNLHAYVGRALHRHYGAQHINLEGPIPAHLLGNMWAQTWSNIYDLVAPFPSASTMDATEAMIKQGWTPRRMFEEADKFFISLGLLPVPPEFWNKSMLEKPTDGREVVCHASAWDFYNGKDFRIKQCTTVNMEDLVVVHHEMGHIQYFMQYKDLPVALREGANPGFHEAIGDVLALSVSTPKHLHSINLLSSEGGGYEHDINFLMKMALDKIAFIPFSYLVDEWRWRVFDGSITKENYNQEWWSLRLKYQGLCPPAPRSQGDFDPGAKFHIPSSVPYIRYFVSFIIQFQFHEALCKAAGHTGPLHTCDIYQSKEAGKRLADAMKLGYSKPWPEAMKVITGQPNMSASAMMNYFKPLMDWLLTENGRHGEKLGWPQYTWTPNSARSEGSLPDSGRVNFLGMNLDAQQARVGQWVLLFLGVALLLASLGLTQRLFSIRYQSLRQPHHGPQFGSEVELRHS
Protocol: For the angiotensin-I converting enzyme (ACE I) inhibitory activity measurements, the peptides were dissolved as described for the ORAC assay. As the highest possible concentration of the peptides without gel formation was 10 mg/mL and no activity could be detected at 5 mg/mL, the peptides were assessed at 7, 8.5, and 10 mg/mL in three independent replicates. The substrate N-[3-(2-furyl) acryloyl]-L-phenylalanyl-glycylglycine (FA-PGG; Sigma Aldrich F7131) was prepared at 0.88 mM in 50 mM Tris-Cl, pH 7.5, and 0.3 M NaCl. In 96-well plates, 10 µL of the samples and their respective buffers as controls were combined with 10 µL of ACE I (ACE; Sigma Aldrich A6778) at 0.25 U/mL and 150 µL of a preheated substrate solution. The absorbance was continuously measured every minute at 340 nm for 30 min in a Synergy HTX S1LFA plate reader. Linear regression curves were obtained for the decrease in absorbance over time for every sample and the % ACE I inhibition was calculated as:% ACE I inhibition = (1 − (ΔA340 nm protein solution/ΔA340 nm negative control)) × 100
Captopril was used to verify the functionality of the assay, and a logarithmic inhibition curve was obtained using 340, 34, 17, and 8.5 µM captopril. IC 50 values were calculated for the peptides for which a positive linear regression line could be obtained based on their ACE inhibition (%) at the assessed concentrations.

## Ac-EMLWLSDGSMGFAEDTDAAFLPGDTIFGRI [Peptide P1]
[1]
  water solubility: poor
[2]; room temperature, visual
  solubility in sodium phosphate buffer (NaPB): dissolved after gentle agitation without any need for DMSO addition
[2]
  peptide concentration at which gelation occurs in NaPB: above 15 mM

## Ac-QNGEYGCVADTPNLLYAFKILDYRQ [Peptide P4]
[1]
  water solubility: poor
[2]; room temperature, visual
  solubility in sodium phosphate buffer (NaPB): dissolved after gentle agitation without any need for DMSO addition
[2]
  peptide concentration at which gelation occurs in NaPB: above 15 mM
[3]
  IC50: 8.96 mM

## Ac-RAGQPITAFLVRD [Peptide P2]
[2]; room temperature, visual
  solubility in sodium phosphate buffer (NaPB): insoluble; also recorded: insolubility
[2]; both buffers: Ca2+-containing artificial sea water pH 7.7 and 75 mM sodium phosphate buffer pH 7.4, 21 °C, visual, three repetitions
  individual peptide solubility: low
[3]; at 10 mg/mL, mean of three replicates
  inhibition at 10000 µg/mL: 75%
[3]
  IC50: 4.78 mM

## Ac-SRPSDPASAVAGEDYTGISRN [Peptide P3]
[2]; 1 mM peptide, artificial sea water pH 7.7, no DMSO, room temperature, visual
  solubility in Ca2+-containing buffer: fully soluble
[2]; room temperature, visual
  solubility in sodium phosphate buffer (NaPB): dissolved after gentle agitation without any need for DMSO addition
[2]
  peptide concentration at which gelation occurs in NaPB: above 15 mM
[2]; Ca2+-containing buffer (artificial sea water, 11 mM Ca2+, pH 7.7), room temperature 21 °C, mix at 1:1:1:1 ratio
  peptide concentration needed for gelation (minimal gelation conditions): 15 mM
